According to PMC9481597 (Communications Biology, 2022):
Read-outs that look alike come from different tables or passages of the source.

Legend:
[1] = system: MPro^WT (SARS-CoV-2 main protease, mature dimer); conditions: ITC, cited from earlier work; for Kd: read-out: Kd = Ki
MPro^C145A = MPro^C145A (Severe acute respiratory syndrome coronavirus 2, UniProt P0DTC1, C3408A); assay type: binding, SARS-CoV-2
MPro^1-199(C145A) [2] = molecular target: T1, MPro^1-199(C145A) (Severe acute respiratory syndrome coronavirus 2, UniProt P0DTC1, C3408A); set-up: species or system SARS-CoV-2
MPro^1-199(C145A) [3] = molecular target: T1, MPro^1-199(C145A); assay type: binding, SARS-CoV-2
[4] = system: MPro^WT (SARS-CoV-2 main protease, mature dimer); assay type: binding

| Structure (SMILES) | N ([1]; GC373) | ΔG ([1]; GC373) | ΔH ([1]; GC373) | ΔS ([1]; GC373) | Kd ([1]; GC373) | Kd = Ki (MPro^C145A) | N ([1]; NMV) | ΔG ([1]; NMV) | ΔH ([1]; NMV) | ΔS ([1]; NMV) | Kd ([1]; NMV) | Kdimer.app (MPro^1-199(C145A) [2]) | dimer formation in SV-AUC (MPro^1-199(C145A) [2]) | protein-inhibitor adduct in mass spectra (MPro^1-199(C145A) [3]) | increase in binding affinity by nitrile warhead reacting with C145 [4] | N (MPro^C145A) | ΔH (MPro^C145A) | ΔS (MPro^C145A) |
| --- | --- | --- | --- | --- | --- | --- | --- | --- | --- | --- | --- | --- | --- | --- | --- | --- | --- | --- |
| CC(C)C[C@H](NC(=O)OCc1ccccc1)C(=O)N[C@H](C=O)C[C@@H]1CCNC1=O [GC373] | 0.99 ± 0.01 | -9.4 kcal/mol | -6.7 ± 0.1 kcal/mol | 9.1 cal/mol/K | 150 ± 30 nM | no response | – | – | – | – | – | – | – | – | – | – | – | – |
| CC(C)(C)[C@H](NC(=O)C(F)(F)F)C(=O)N1C[C@H]2[C@@H]([C@H]1C(=O)N[C@H](C#N)C[C@@H]1CCNC1=O)C2(C)C [NMV, nirmatrelvir] | – | – | – | – | – | – | 0.99 ± 0.003 | –11.2 kcal/mol | –10.75 ± 0.7 kcal/mol | 1.57 cal/mol/K | 7 ± 3 nM | >200 µM | no faster sedimenting species other than a monomer was observed | absence of the imidate thioester adduct | ~ 400 times | 0.96 ± 0.04 | –3.89 ± 0.2 kcal/mol | 12.6 cal/mol/K |
